Assay results as given in patent publication US8329392B2, “Determination of testosterone by mass spectrometry” (Quest Diagnostics Investments Incorporated, priority 2003, dated 2012).

What was measured:
[1] = Sample stability of testosterone in sample pools; format: physicochemical, human; conditions: testosterone in samples
From the text: A blood serum sample is collected from a human patient. The serum is first de-proteinated using a 10% formic acid solution or a 1% trichloroacetic acid solution (in methanol). The deproteination also acts to release testosterone from SHBG, albumin, and other binding proteins. In other embodiments proteins can be removed from the blood with other acids such as a solution of 1% trichloroacetic acid in methanol.
To understand the stability of testosterone in samples, two levels of sample pool were subjected to the following conditions:
Freeze/Thaw: 1, 2, 3, 4, and 5 cycles.
Refrigerated (2-8° C.): 0, 1, 2, 4, 7, and 14 days.
Duplicate runs of samples were run on two separate days.

[2] = biological target: T1, Sex hormone-binding globulin (SHBG) (Homo sapiens, UniProt P04278); conditions: SHBG vs albumin; cited from earlier work
T1 sequence (P04278 30-402): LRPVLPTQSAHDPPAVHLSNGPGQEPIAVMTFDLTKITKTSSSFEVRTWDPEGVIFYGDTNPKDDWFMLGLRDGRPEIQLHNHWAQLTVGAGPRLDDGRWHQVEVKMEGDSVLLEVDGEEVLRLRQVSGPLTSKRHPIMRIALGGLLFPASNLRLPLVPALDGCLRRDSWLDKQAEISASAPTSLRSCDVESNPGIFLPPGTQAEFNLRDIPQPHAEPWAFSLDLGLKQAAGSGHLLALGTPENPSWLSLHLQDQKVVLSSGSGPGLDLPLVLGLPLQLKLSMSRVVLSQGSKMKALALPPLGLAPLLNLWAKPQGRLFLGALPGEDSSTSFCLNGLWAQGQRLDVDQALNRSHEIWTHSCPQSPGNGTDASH

plasma proteins = conditions: in circulation; cited from earlier work

## C[C@]12CC[C@H]3[C@@H](CCC4=CC(=O)CC[C@@]43C)[C@@H]1CC[C@@H]2O [Testosterone, 4 androsten 17β-ol-3-one]
[1]; Freeze Thaw Cycles, with no effect
  Stability: Up to 5 with no effect Cycles
[1]; Refrigerated (0°-8° C.)
  Stability: 7 days
[1]; Room Temp (18-25° C.)
  Stability: 4 days
[2]
  binding capacity of SHBG for testosterone relative to that of albumin: approximately 30,000 times
Plasma proteins
  testosterone circulating unbound to plasma proteins: Less than 2.5%
